Results: ChEMBL document CHEMBL5131466, “Discovery and development of labdane-oxindole hybrids as small-molecule inhibitors against chikungunya virus infection” (Eur J Med Chem, 2022)
Active and inactive are the calls of the source. The rule behind the calls is not given here.

Tests used:
[1] = tested on: Chikungunya virus; assay: Antiviral activity against CHIKV 122508 infected in […] BHK-21 cells assessed as reduction in viral titer at MOI of 1 measured after 24 hpi by viral plaque assay; type: functional, organism-based; details: Chikungunya virus, 122508, BHK-21
[2] = Cytotoxicity against human HeLa CCL2 cells assessed as reduction in cell viability measured after 24 hrs by Alamar blue assay; type: functional
[3] = tested on: Chikungunya virus; assay: Antiviral activity against CHIKV 122508 infected in human HeLa CCL2 cells assessed as inhibition of viral replication at MOI of 1 at 1 uM incubated for 24 hpi by viral plaque assay; type: functional; details: time 24 hrs
[4] = Selectivity index, ratio of CC50 for cytotoxicity against human HeLa CCL2 cells to EC50 for antiviral activity against CHIKV 122508 infected in human HeLa CCL2 cells; type: toxicity, cell-based; details: read-out: Ratio CC50/EC50
[5] = tested on: Chikungunya virus; assay: Antiviral activity against CHIKV 122508 infected in human HeLa CCL2 cells assessed as inhibition of viral replication at MOI of 1 at 5 uM incubated for 24 hpi by viral plaque assay; type: functional; details: time 24 hrs
[6] = tested on: Chikungunya virus; assay: Antiviral activity against CHIKV 122508 infected in human HeLa CCL2 cells assessed as inhibition of viral replication at MOI of 1 incubated for 24 hpi by immunofluorescence assay; type: functional, organism-based; details: Chikungunya virus, 122508, HeLa CCL2
[7] = tested on: Chikungunya virus; assay: Antiviral activity against CHIKV 122508 infected in human HeLa CCL2 cells assessed as inhibition of viral replication at MOI of 1 at 20 uM incubated for 24 hpi by viral plaque assay; type: functional; details: time 24 hrs
[8] = tested on: Chikungunya virus; assay: Antiviral activity against CHIKV 122508 infected in human HeLa CCL2 cells assessed as inhibition of viral replication at MOI of 1 at 80 uM incubated for 24 hpi by viral plaque assay; type: functional; set-up: unit not given here; details: time 24 hrs
[9] = Selectivity index, ratio of CC50 for Cytotoxicity against hamster BHK-21 cells to EC50 for Antiviral activity against CHIKV 6708 infected in hamster BHK-21 cells; type: toxicity, cell-based; details: read-out: Ratio CC50/EC50
[10] = tested on: Chikungunya virus; assay: Antiviral activity against CHIKV 122508 mutant infected in hamster BHK-21cells assessed as log reduction in viral titer at 80 uM measured after 14 passage; type: functional, organism-based
[11] = tested on: Chikungunya virus; assay: Antiviral activity against CHIKV 122508 infected in human HeLa CCL2 cells assessed as inhibition of viral replication at MOI of 1 at 40 uM pretreated with compound for 2 hr prior to viral infection by viral plaque assay (reference value: 6.2 %); type: functional
[12] = tested on: Chikungunya virus; assay: Antiviral activity against CHIKV 122508 infected in human HeLa CCL2 cells assessed as inhibition of viral replication at MOI of 1 at 80 uM pretreated for 2 hrs followed by viral infection measured after 1.5 hrs by viral plaque assay (reference value: 6.2); type: functional; details: time 3.5 hrs
[13] = tested on: Chikungunya virus; assay: Antiviral activity against CHIKV 6708 infected in hamster BHK-21 cells assessed as reduction in viral titer at 80 uM post treatment; type: functional, organism-based
[14] = tested on: BHK-21; assay: Cytotoxicity against hamster BHK-21 cells assessed as reduction in cell viability; type: functional; details: Mesocricetus auratus
[15] = tested on: Chikungunya virus; assay: Antiviral activity against CHIKV 6708 infected in hamster BHK-21 cells assessed as reduction in virus titer in cells; type: functional, organism-based; details: Chikungunya virus, 6708, BHK-21

SMILES | EC50 [1] | CC50 [2] | selectivity ratio [4] | Activity [5] | also measured
C=C1[C@H](O)C[C@H]2C(C)(C)CCC[C@]2(C)[C@H]1C/C=C1/C(=O)Nc2c(Cl)cccc21 | 0.001 µM | 6.1 µM | 6100 | – | Activity [3]: 1.1
C=C1CC[C@H]2C(C)(C)CCC[C@]2(C)[C@H]1C/C=C1/C(=O)Nc2ccc(F)cc21 | 0.06 µM | 5.6 µM | 94 | 1.5 | –
C=C1CC[C@@H]2[C@](C)(CO)[C@H](O)CC[C@@]2(C)[C@@H]1C/C=C1/C(=O)OC[C@H]1O [ANDROGRAPHOLIDE] | – | – | – | – | EC50 [6]: 77 µM
C=C1CC[C@H]2C(C)(C)CCC[C@]2(C)[C@H]1C/C=C1\C(=O)Nc2ncccc21 | 0.04 µM | 34.8 µM | 870 | – | Activity [7]: 1.7
C=C1CC[C@H]2C(C)(C)CCC[C@]2(C)[C@H]1C/C=C1/C(=O)Nc2cc(C)ccc21 | 0.002 µM | 25.4 µM | 12700 | 1.2 | –
C=C1CC[C@H]2C(C)(C)CCC[C@]2(C)[C@H]1C/C=C1/C(=O)Nc2c(F)cccc21 | 0.02 µM | 81.4 µM | 4070 | – | Activity [7]: 2.3
C=C1CC[C@H]2C(C)(C)CCC[C@]2(C)[C@H]1C/C=C1\C(=O)Nc2ccc(C)cc21 | 0.03 µM | 13.8 µM | 461 | 0.9 | –
C=C1CC[C@H]2C(C)(C)CCC[C@]2(C)[C@H]1C/C=C1/C(=O)Nc2c(Cl)cccc21 | 1.55 µM | 130 µM | 83 | – | Activity [8]: 3.9; selectivity ratio [9]: 714; Activity [10]: Active; Activity [11]: 5.2; Activity [12]: 4.6; Activity [13]: Active; CC50 [14]: > 100 µM; EC50 [15]: 0.14 µM
C=C1CC[C@@H]2[C@](C)(CO)[C@H](O)CC[C@@]2(C)[C@@H]1C/C=C1/C(=O)Nc2ccccc21 | 5.52 µM | 76.9 µM | 14 | – | EC50 [6]: 5.5 µM
